Laboratory results published in PubChem BioAssay (NCI).
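Where inhibition never reached the appropriate level, the endpoint shown equals the highest concentration tested. Otherwise, values were interpolated linearly from a five-concentration, 48-hour dose response in 96-well plates. Here, GI50 denotes the concentration required for 50% inhibition of growth. Definition used: TGI = concentration required for complete inhibition of growth.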

system: A498 renal; assay: NCI tumour cell line growth inhibition, 48 h

Row | Structure (SMILES) | GI50 [µM] | TGI [µM]
1 | Nc1ccc(-c2nc3ccc(Cc4ccc5nc(-c6ccc(N)cc6)[nH]c5c4)cc3[nH]2)cc1 | 0.855 | 21.4
2 | O=S(=O)(Nc1cc(Sc2cccc3cccnc23)c(O)c2ccccc12)c1ccccc1 | 4.01 | 30.6
3 | CN(C)C(=O)[C@H](O)[C@H](Cc1ccccc1)NC(=O)c1cc2cc(Cl)ccc2[nH]1 | 12.1 | 54.1
4 | CC(C)(C[C@H]1CN(S(=O)(=O)c2cccc(C(F)(F)F)c2)c2cc(-c3cc(F)cc(OC(F)F)c3)ccc2O1)C(=O)O | 4.5 | 16.9
5 | Cc1ccc(-c2nc3ccc(Cl)cc3c(=O)n2N2C(=O)CSC2c2ccccc2Cl)cc1 (stereo unspecified) | 5.91 | > 100
6 | O=C(O)C1C(Br)(c2ccccc2)C1(Br)c1ccccc1 (stereo unspecified) |  | 83.8
7 | C#Cc1c(I)n(C2OC(CO[Si](C)(C)C(C)(C)C)C3OC(C)(C)OC32)c(=O)[nH]c1=O (stereo unspecified) | 17.1 | 35.7
8 | CCSc1nc(SCC)c2cn[nH]c2n1 | 2.47 | 13.1
9 | ClCC[N+]12CC[N+](CCCl)(CC1)C2 |  | > 100
10 | COc1cc(C(=O)c2cc(C)c3[nH]c4ccc(C)cc4c3c2C)cc(OC)c1OC | < 0.01 | < 0.01
11 | Cc1ccc2[nH]c(O)c(N=Nc3ccc(S(N)(=O)=O)cc3)c2c1 | > 25 | > 25
12 | C/C(N=NC(=S)N(C)C)=C1\C=CC=CN1O |  | > 100
13 | C=C1CCC(CC[C@@H]2CC[C@]3(OC2)O[C@@]2(O)CC[C@]3(C)OC2(C)C)C(C)(C)[C@H]1C/C=C1/C(=O)OC[C@@H]1O (stereo partly specified) |  | 15.2
14 | Cn1c(=O)c(Cc2ccccc2F)cc2cnc(NC3CCOCC3)nc21 | > 25 | > 25
15 | CC1(C)[C@@H](OC(N)=O)[C@H]2O[C@H]2[C@]2(C=O)[C@H]3CC[C@]4(C)[C@@H](c5ccc(=O)oc5)[C@@H](Cl)C[C@]4(O)C3=CC[C@@H]12 | 0.00683 | 0.0222
16 | CCCCON(OC(=O)c1ccc2ccc3cccc4ccc1c2c34)C(C)=O | 27.7 | 85.8
17 | Cc1[nH]c2ccccc2c(=O)c1CC=C(Cl)Cl | 14.5 | 86.8
18 | C1CCC([PH+](C2CCCCC2)C2CCCCC2[PH+](C2CCCCC2)C2CCCCC2)CC1.O=C(C1[CH-]CCCC1)C1CCCC[N-]1.[Au] (stereo unspecified) | 0.0757 | 0.584
19 | Clc1ccc(C=Nc2ccc3c(c2)Cc2ccccc2-3)c(Cl)c1 |  | > 100
20 | CN(C)CCN1C(=O)c2ccc3c4c(ccc(c24)C1=O)C(=O)N(CCN=C=S)C3=O | 0.0529 | 0.207
21 | O=C(/C=C\c1ccc(NCc2ccc(C(=O)O)cc2)cc1)CCl | 15 | 28.3
22 | COc1cccc(C#Cc2ccccc2C#CCCCCO)c1 | 10.3 | 23.8
23 | CC(C)C[C@H](NC(=O)/C=C/Cn1ccc2ccccc2c1=O)B(O)O | 1.7 | 7.95
24 | CC1=C[C@H]2c3c(c(O)c(O)c4oc(-c5ccccc5)cc(=O)c34)[C@H](c3cc(O)c(O)c4oc(-c5ccccc5)cc(=O)c34)[C@H]2C(C)(C)C1 | 0.659 | 3.72
25 | COc1ccc(/C=C/C(=O)C(CC2CCC2)C(=O)/C=C/c2ccc(OC)c(OC)c2)cc1OC | 1.82 | 3.33
26 | CCCCCCCCCCCCCCCCCCOc1ccccc1CC(=O)OCC[N+]1(C)CCCC1 | 2.18 | 8.82

system: A549 NSCLC; assay: NCI tumour cell line growth inhibition, 48 h

Row | Structure (SMILES) | GI50 [µM] | TGI [µM]
27 | Nc1ccc(-c2nc3ccc(Cc4ccc5nc(-c6ccc(N)cc6)[nH]c5c4)cc3[nH]2)cc1 | 20.8 | 57.7
28 | O=S(=O)(Nc1cc(Sc2cccc3cccnc23)c(O)c2ccccc12)c1ccccc1 | 0.747 | 18.1
29 | CN(C)C(=O)[C@H](O)[C@H](Cc1ccccc1)NC(=O)c1cc2cc(Cl)ccc2[nH]1 | 24 | > 93.3
30 | CC(C)(C[C@H]1CN(S(=O)(=O)c2cccc(C(F)(F)F)c2)c2cc(-c3cc(F)cc(OC(F)F)c3)ccc2O1)C(=O)O | 4.85 | 17.9
31 | O=C(O)C1C(Br)(c2ccccc2)C1(Br)c1ccccc1 (stereo unspecified) |  | > 100
